# Data reported in patent US10770169B2, “Method of providing a treatment to a subject based on a dynamic pathway map” (THE REGENTS OF THE UNIVERSITY OF CALIFORNIA, priority 2010, dated 2020).
# Where two headings read alike, the source gives them in different places.
# System: panel of 55 breast cancer cell lines
# Assay: Cell growth inhibition assay (Cell Titer Glo, 72 h, 9 doses; GI50, TGI, LC50)
# Type: cell-based, human
# Settings: Homo sapiens, read-out: GI50 (converted)
smiles,measurement,setting,value
CC(C)C[C@H](NC(=O)[C@H](Cc1ccccc1)NC(=O)c1cnccn1)B(O)O [Bortezomib],GI50,"600MPE cell line, censored GI50 values",427 nM
same,GI50,"AU565, AU565 cell line, censored GI50 values",5.25 nM
same,GI50,"AU565, cell line AU565",5.25 nM
same,GI50,"BT-20, BT20 cell line, censored GI50 values",46.8 nM
same,GI50,"BT-20, cell line BT20",46.8 nM
same,GI50,"BT-474, BT474 cell line, censored GI50 values",7.41 nM
same,GI50,"BT-474, cell line BT474",7.41 nM
same,GI50,"BT-483, BT483 cell line, censored GI50 values",19.5 nM
same,GI50,"BT-483, cell line BT483",19.5 nM
same,GI50,"BT-549, BT549 cell line, censored GI50 values",6.03 nM
same,GI50,"BT-549, cell line BT549",6.03 nM
same,GI50,"CAMA-1, CAMA1 cell line, censored GI50 values",16.6 nM
same,GI50,"CAMA-1, cell line CAMA1",16.6 nM
same,GI50,"HCC38, HCC38 cell line, censored GI50 values",11 nM
same,GI50,"HCC38, cell line HCC38",11 nM
same,GI50,"HCC70, HCC70 cell line, censored GI50 values",1.78 nM
same,GI50,"HCC70, cell line HCC70",1.78 nM
same,GI50,"HCC202, HCC202 cell line, censored GI50 values",7.24 nM
same,GI50,"HCC202, cell line HCC202",7.24 nM
same,GI50,"HCC1143, HCC1143 cell line, censored GI50 values",8.51 nM
same,GI50,"HCC1143, cell line HCC1143",8.51 nM
same,GI50,"HCC1187, HCC1187 cell line, censored GI50 values",3.39 nM
same,GI50,"HCC1187, cell line HCC1187",3.39 nM
same,GI50,"HCC1395, HCC1395 cell line, censored GI50 values",7.24 nM
same,GI50,"HCC1395, cell line HCC1395",7.24 nM
same,GI50,"HCC1419, HCC1419 cell line, censored GI50 values",4.37 nM
same,GI50,"HCC1419, cell line HCC1419",4.37 nM
same,GI50,"HCC1428, HCC1428 cell line, censored GI50 values",91.2 nM
same,GI50,"HCC1428, cell line HCC1428",91.2 nM
same,GI50,"HCC1500, HCC1500 cell line, censored GI50 values",12.3 nM
same,GI50,"HCC1500, cell line HCC1500",12.3 nM
same,GI50,"HCC1806, HCC1806 cell line, censored GI50 values",22.9 nM
same,GI50,"HCC1806, cell line HCC1806",22.9 nM
same,GI50,"HCC1937, HCC1937 cell line, censored GI50 values",7.59 nM
same,GI50,"HCC1937, cell line HCC1937",7.59 nM
same,GI50,"HCC1954, HCC1954 cell line, censored GI50 values",10 nM
same,GI50,"HCC1954, cell line HCC1954",10 nM
same,GI50,"HCC2185 cell line, censored GI50 values",4.47 nM
same,GI50,"HCC3153 cell line, censored GI50 values",10.5 nM
same,GI50,"LY2 cell line, censored GI50 values",603 nM
same,GI50,"MCF7, MCF7 cell line, censored GI50 values",19.1 nM
same,GI50,"MCF7, cell line MCF7",19.1 nM
same,GI50,"MDA-MB-134-VI, MDAMB134VI cell line, censored GI50 values",8.32 nM
same,GI50,"MDA-MB-157, MDAMB157 cell line, censored GI50 values",6.92 nM
same,GI50,"MDA-MB-157, cell line MDAMB157",6.92 nM
same,GI50,"MDA-MB-175-VII, MDAMB175VII cell line, censored GI50 values",5.25 nM
same,GI50,"MDA-MB-231, MDAMB231 cell line, censored GI50 values",27.5 nM
same,GI50,"MDA-MB-231, cell line MDAMB231",27.5 nM
same,GI50,"MDA-MB-361, MDAMB361 cell line, censored GI50 values",6030 nM
same,GI50,"MDA-MB-361, cell line MDAMB361",6030 nM
same,GI50,"MDA-MB-415, MDAMB415 cell line, censored GI50 values",32.4 nM
same,GI50,"MDA-MB-415, cell line MDAMB415",32.4 nM
same,GI50,"MDA-MB-436, MDAMB436 cell line, censored GI50 values",8.71 nM
same,GI50,"MDA-MB-436, cell line MDAMB436",8.71 nM
same,GI50,"MDA-MB-453, MDAMB453 cell line, censored GI50 values",6.92 nM
same,GI50,"MDA-MB-453, cell line MDAMB453",6.92 nM
same,GI50,"MDA-MB-468, MDAMB468 cell line, censored GI50 values",14.1 nM
same,GI50,"MDA-MB-468, cell line MDAMB468",14.1 nM
same,GI50,"SK-BR-3, SKBR3 cell line, censored GI50 values",7.59 nM
same,GI50,"SK-BR-3, cell line SKBR3",7.59 nM
same,GI50,"SUM52PE, SUM52PE cell line, censored GI50 values",5.25 nM
same,GI50,"SUM52PE, cell line SUM52PE",5.25 nM
same,GI50,"SUM149PT, SUM149PT cell line, censored GI50 values",7.41 nM
same,GI50,"SUM149PT, cell line SUM149PT",7.41 nM
same,GI50,"SUM185PE, SUM185PE cell line, censored GI50 values",5.37 nM
same,GI50,"SUM185PE, cell line SUM185PE",5.37 nM
same,GI50,"SUM225CWN, SUM225CWN cell line, censored GI50 values",10.5 nM
same,GI50,"SUM225CWN, cell line SUM225CWN",10.5 nM
same,GI50,"SUM1315MO2, SUM1315MO2 cell line, censored GI50 values",13.8 nM
same,GI50,"SUM-159-PT, SUM159PT cell line, censored GI50 values",7.41 nM
same,GI50,"SUM-159-PT, cell line SUM159PT",7.41 nM
same,GI50,"T47D, T47D cell line, censored GI50 values",8.32 nM
same,GI50,"T47D, cell line T47D",8.32 nM
same,GI50,"UACC-812, UACC812 cell line, censored GI50 values",24 nM
same,GI50,"UACC-812, cell line UACC812",24 nM
same,GI50,"UACC-893, UACC893 cell line, censored GI50 values",0.646 nM
same,GI50,"UACC-893, cell line UACC893",0.646 nM
same,GI50,"ZR-75-1, ZR751 cell line, censored GI50 values",17.4 nM
same,GI50,"ZR-75-1, cell line ZR751",17.4 nM
same,GI50,"ZR-75B, ZR75B cell line, censored GI50 values",132 nM
same,GI50,"ZR-75B, cell line ZR75B",132 nM
same,GI50,cell line 600MPE,427 nM
same,GI50,cell line HCC2185,4.47 nM
same,GI50,cell line HCC3153,10.5 nM
same,GI50,cell line LY2,603 nM
same,GI50,cell line MDAMB134V,8.32 nM
same,GI50,cell line MDAMB175V,5.25 nM
same,GI50,cell line SUM1315MO,13.8 nM
